Patent publication US20110092589A1, “Treatment of Inflammatory Conditions and Diseases with Metal-Thiols” (THE CHARLOTTE-MECKLENBURG HOSPOTAL AUTHORITY, priority 2008, published 2011)

Legend:
[1] = tested on: IL-10; assay: Serum free IL-10 in mouse inflammation model; type: in vivo, mice; details: Table 2; treatment i.v. five hours after initiation of inflammation; BisEDT 20 ug/kg
Description: (§1) In the following examples, the protective effects of BisEDT was studied in an inflammation model of mice. Male swiss white mice weighing between 30-35 grams were used. The cecum of the mice were ligated and perforated to cause inflammation. BisEDT was prepared in a molar concentration of 1:2 by adding 4.9 pi 10.19 M EDT to 1 ml of 50 mM Bi(NO3)3 in propylene glycol.
A total of eight groups each containing 10-20 mice in each group were used for the next phase of the study. Five hours after initiation of inflammation, 20 ug/kg BisEDT was administered intravenously with the combination of different biologics indicated in Table 2 with one group that received vehicle only (control). The survival time for each group was recorded. In another eight groups of mice 10 in each group was injected similarly with the same combination of treatment and control and several measures of immune response were assessed such as measurement of pro- and anti-inflammatory cytokines during BisEDT treatment of these mice. […] From 60-70% of mice survived when treated with one or two doses of 20 μg/kg BisEDT (p<0.05), whereas doses 10-fold higher or lower protected only 30-40% of mice (Table 1). […] However, only free TNFα, not total TNFα or free IL-10, correlated strongly with survival (r=−0.92). IL-10 is an anti-inflammatory cytokine and under certain circumstances it can cause immunosuppression. […]

[2] = tested on: TNFα; assay: Serum TNFα (total and free) in mouse inflammation model; type: in vivo, mice
Description: as §1
(§2) A total of eight groups each containing 10-20 mice in each group were used for the next phase of the study. Five hours after initiation of inflammation, 20 ug/kg BisEDT was administered intravenously with the combination of different biologics indicated in Table 2 with one group that received vehicle only (control). The survival time for each group was recorded. In another eight groups of mice 10 in each group was injected similarly with the same combination of treatment and control and several measures of immune response were assessed such as measurement of pro- and anti-inflammatory cytokines during BisEDT treatment of these mice. […] From 60-70% of mice survived when treated with one or two doses of 20 μg/kg BisEDT (p<0.05), whereas doses 10-fold higher or lower protected only 30-40% of mice (Table 1). […] However, only free TNFα, not total TNFα or free IL-10, correlated strongly with survival (r=−0.92). IL-10 is an anti-inflammatory cytokine and under certain circumstances it can cause immunosuppression. In order to test whether IL-10 plays a role in the model, monoclonal antibodies to IL-10 (that neutralizes IL-10) were used. […] Additionally, IL10 or IL-10+BisEDT provided no protection for the mice. A general damping down of cytokine production was observed, yet it was the reduction in free TNFα that correlated most closely with prevention. BisEDT appears to preserve the normal cellular response to activating stimuli and to protect mice from immune suppression or overwhelming immune reaction.

[3] = tested on: Male swiss white mice; assay: Survival in inflammation model of mice (cecum ligated and perforated); type: in vivo; details: for % Survival 1 dose: tail vein once daily for three days; for % Survival 1 dose / % Survival 2 doses: monitored 8 days; for % Survival 2 doses: tail vein twice daily for three days; for % Survived / Survived/Total: Table 2, treatment i.v. five hours after initiation of inflammation, BisEDT 20 ug/kg
Description: as §1
A total of sixty mice, 10 in each group, were used in the survival phase of experimentation. Five hours after CLP, BisEDT was administered intravenously in five groups via the tail vein, once a day for three days, at doses of 0.2, 2, 20, 200 and 2000 ug Bi^3+/kg, while the last group received vehicle only. The survival time for each group of mice was recorded to determine an optimal dosage of BisEDT. The study was repeated using limited doses to confirm the results, and to determine if more frequent dosing would increase or prolong survival. This group was injected twice daily with the same doses of BisEDT, with one control group.
as §2
After inflammation, BisEDT was introduced into the tail vein once or twice daily for three days. Mice were monitored for 8 days to determine survival. *p<0.05, compared to control.

[4] = Table 2, treatment i.v. five hours after initiation of inflammation, BisEDT 20 ug/kg
[5] = 20 μg Bi3+/kg BW, *p<0.05 vs control

Row | Substance | sIL-10 (free fraction), serum [1] [pg/mL] | changes in cytokine levels (IL1β, TNFα, IL-10, TGFβ), in words ([2]; BisEDT-treated mice, not nearly to the same extent as in the untreated group) | sTNFα (free fraction), serum [2, 4] [pg/mL] | tTNFα (total fraction), serum [2, 4] [ng/mL] | % Survival 1 dose ([3]; 2 μg Bi3+/kg BW) [%] | % Survival 2 doses ([3]; 2 μg Bi3+/kg BW) [%] | % Survival 1 dose [3, 5] | % Survival 2 doses [3, 5] | % Survival 1 dose ([3]; 200 μg Bi3+/kg BW) [%] | % Survival 2 doses ([3]; 200 μg Bi3+/kg BW) [%] | % Survived [3] [%] | Survived/Total [3] | % of mice protected ([3]; doses 10-fold higher or lower than 20 μg/kg) | % of mice survived ([3]; one or two doses of 20 μg/kg BisEDT (p<0.05)) | protection of mice (in words) ([3]; mouse inflammation model)
1 | Bismuth-ethanedithiol [BisEDT] | 595 | significant changes in TNFα only | 100 | 330 | 40 | 40 | 60* % | 70* % | 40 | 30 | 60 | 6/10 | 30-40% | 60-70% | 
2 | IL-10: IL-10 is an anti-inflammatory cytokine |  |  |  |  |  |  |  |  |  |  | 0 | 0/10 |  |  | no protection
